Values of other authors, collected in publication PMC4905688 (Biomaterials, 2016).

System: ischemic limbs

## VEGF
  Effect of local delivery on ischemia / vessels: modest reversal of ischemia or the development of leaky blood vessels
